Laboratory results as given in PMC12635268, “Novel antimicrobial peptides and peptide-microbiome crosstalk in Appalachian salamander skin” (NPJ Biofilms and Microbiomes, 2025).
Read-outs that look alike come from different tables or passages of the source. Ends that are not written are not given here. Peptide text beside a SMILES is read from it.

Assays:
P. aeruginosa PA01 (Si) = assay: microbe, parasite or virus in culture; type: cell-based
From the text: Supplement 41522_2025_837_MOESM13_ESM.xlsx, sheet "Table_S13_ESKAPEE-MIC" | column: Bacterial MIC (µg/mL)

A. baumannii 5075 = settings: Week 1 (12/6/2023)
S. aureus ATCC 25923 = assay: microbe, parasite or virus in culture
Method: (§1) Antimicrobial susceptibility testing of the 20 synthesized peptides against 17 bacterial strains of clinical relevance in the ESKAPEE panel was conducted using minimum inhibitory concentration (MIC) assays following the broth microdilution method outlined by Parker et al.[91]. The ESKAPEE panel is comprised of fourteen American Type Culture Collection (ATCC) strains and three Multidrug Resistant Organism Repository and Surveillance Network (MRSN) bacterial strains. These strains represent at least one drug-susceptible strain and one drug-resistant strain for each bacterium to assess drug efficacy across various resistance mechanisms. This panel is comprised of the following bacterial species and strains: E. faecium (ATCC 19434, ATCC 49224), S. aureus (ATCC 25923, ATCC 43300), K. pneumoniae (ATCC 700603, ATCC 13883, MRSN 1320), A. baumannii (ATCC 17978, ATCC 19606, MRSN 959), P. aeruginosa (ATCC 15692, ATCC 27853, MRSN 5519), E. cloacae (ATCC 13047, ATCC 35549), and E. coli (ATCC 35218, ATCC 43888). Bacteria were grown in cation-adjusted Mueller-Hinton broth (CAMHB) to achieve a final inoculum of 1 × 10⁵ CFU/mL. CAMHB is selected for its batch-to-batch reproducibility, low levels of antimicrobial inhibitors, and ability to support the growth of most bacterial pathogens.
(§2) Briefly, lyophilized peptides were dissolved in 0.2% TFA + 0.4% BSA in water to 2.56 mg/mL, ultrasonicated for 20 min, diluted 10-fold into CAMHB, and then serially diluted 2-fold in 0.02% TFA + 0.04% BSA in CAMHB and assayed at a concentration of 0.25 to 128 μg/mL. Assays were set up using the Tecan Freedom EVO liquid handling robot and software (Tecan, Switzerland) with 50 μL of bacterial inoculum and 50 μL of peptide transferred into round-bottom 96-well microtiter plates. Each plate assay was performed in duplicate and incubated at 37 °C for 20 h without agitation. Bacterial growth was assessed using the BIOMIC V3 Image Analysis system (Giles Scientific, USA) and the MIC values were determined visually according to the Clinical and Laboratory Standards Institute (CLSI) guidelines.

P. aeruginosa ATCC 27853 = assay: microbe, parasite or virus in culture
Method: as §1, §2

E. coli ATCC 35218 = assay: microbe, parasite or virus in culture; settings: E. coli 35218; Week 1 (12/6/2023)
Method: as §1, §2

A. baumannii ATCC 17978 = assay: microbe, parasite or virus in culture
Method: as §1, §2

E. faecium ATCC 49224 = assay: microbe, parasite or virus in culture
Method: as §1, §2

E. cloacae ATCC 35549 = assay: microbe, parasite or virus in culture
Method: as §1, §2

E. faecium ATCC 19434 = assay: microbe, parasite or virus in culture
Method: as §1, §2

E. cloacae ATCC 13047 = assay: microbe, parasite or virus in culture
Method: as §1, §2

[1] = test system: K. pneumoniae ATCC 700603; assay: microbe, parasite or virus in culture; settings: K. pneumoniae 700603; Week 1 (12/6/2023)
Method: as §1, §2

P. aeruginosa MRSN 5519 = assay: microbe, parasite or virus in culture
Method: as §1, §2

A. baumannii ATCC 19606 = assay: microbe, parasite or virus in culture
Method: as §1, §2

S. aureus ATCC 43300 = assay: microbe, parasite or virus in culture; settings: S. aureus 43300; Week 1 (12/6/2023)
Method: as §1, §2

E. coli ATCC 43888 = assay: microbe, parasite or virus in culture
Method: as §1, §2

K. pneumoniae ATCC 13883 = assay: microbe, parasite or virus in culture
Method: as §1, §2

[2] = set-up: method as in Biomatik (vendor); settings: 1.0 mg peptide in 1.0 ml solvent; peptides synthesized by Biomatik; ref Biomatik (vendor); cited from earlier work
[3] = test system: Batrachochytrium dendrobatidis Bd-GPL strain JEL404; settings: slope of growth, positive = inhibition, negative = no inhibition
Method: Bd-peptide challenge assays were conducted with the crude peptides extracted from the salamander skin secretions and with the 20 synthesized peptides. We followed methods by Pereria et al.[49] to conduct assays with the crude peptides using Bd-GPL strain JEL404 at 1 × 10^6 zoospores/mL. Briefly, skin peptide samples were pooled together based on species-site-injection (Table 1). Skin peptides samples were serially diluted 2-fold in MilliQ (Ultrapure Type 1) water and assayed at a concentration of 2.35–75 μg/mL based on starting peptide concentration available. For synthesized peptides, we conducted assays from 15.6 to 500 μg/ml. In both assays, we quantified percent inhibition of each well using slope of growth[90] in which positive values indicate inhibition and negative values indicate no inhibition.

[4] = K. pneumoniae 4640, Week 1 (12/6/2023)
[5] = P. aeruginosa PA01 (Si), not typical ESKAPEE strain, Week 1 (12/6/2023)
[6] = S. aureus 25923, Week 1 (12/6/2023)
[7] = P. aeruginosa 27853, Week 1 (12/6/2023)
[8] = A. baumannii 17978, Week 1 (12/6/2023)
[9] = E. faecium 49224, Week 1 (12/6/2023)
[10] = E. cloacae 35549, Week 1 (12/6/2023)
[11] = E. faecium 19434, Week 1 (12/6/2023)
[12] = E. cloacae 13047, Week 1 (12/6/2023)
[13] = P. aeruginosa 5519, Week 1 (12/6/2023)
[14] = A. baumannii 19606, Week 1 (12/6/2023)
[15] = E. coli 43888, Week 1 (12/6/2023)
[16] = K. pneumoniae 13883, Week 1 (12/6/2023)
[17] = synthesized peptide 15.625 μg/mL
[18] = synthesized peptide 31.25 μg/mL

| Molecule | Bacterial MIC (K. pneumoniae 4640; [4]) | Bacterial MIC (P. aeruginosa PA01 (Si); [5]) | Bacterial MIC (A. baumannii 5075) | Bacterial MIC (S. aureus ATCC 25923; [6]) | Bacterial MIC (P. aeruginosa ATCC 27853; [7]) | Bacterial MIC (E. coli ATCC 35218) | Bacterial MIC (A. baumannii ATCC 17978; [8]) | Bacterial MIC (E. faecium ATCC 49224; [9]) | Bacterial MIC (E. cloacae ATCC 35549; [10]) | Bacterial MIC (E. faecium ATCC 19434; [11]) | Bacterial MIC (E. cloacae ATCC 13047; [12]) | Bacterial MIC [1] | Bacterial MIC (P. aeruginosa MRSN 5519; [13]) | Bacterial MIC (A. baumannii ATCC 19606; [14]) | Bacterial MIC (S. aureus ATCC 43300) | Bacterial MIC (E. coli ATCC 43888; [15]) | Bacterial MIC (K. pneumoniae ATCC 13883; [16]) | Suggest solvent (solubility) [2] | Bd inhibition score (percent inhibition), mean [3, 17] | Bd inhibition score (percent inhibition), mean [3, 18] | other results |
| --- | --- | --- | --- | --- | --- | --- | --- | --- | --- | --- | --- | --- | --- | --- | --- | --- | --- | --- | --- | --- | --- |
| KGPRPPGFSPFR [PrMb-Eb7] | >128.000 µg/mL | >128.000 µg/mL | >128.000 µg/mL | >128.000 µg/mL | >128.000 µg/mL | >128.000 µg/mL | >128.000 µg/mL | >128.000 µg/mL | >128.000 µg/mL | >128.000 µg/mL | >128.000 µg/mL | >128.000 µg/mL | >128.000 µg/mL | >128.000 µg/mL | >128.000 µg/mL | >128.000 µg/mL | >128.000 µg/mL | 1.0mg peptide soluble in 1.0ml H2O | -125.322% | -116.924% | Bd inhibition score (percent inhibition), mean ([3]; synthesized peptide 62.5 μg/mL): -107.962%; Bd inhibition score (percent inhibition), mean ([3]; synthesized peptide 125 μg/mL): -145.651%; Bd inhibition score (percent inhibition), mean ([3]; synthesized peptide 250 μg/mL): -143.314%; Bd inhibition score (percent inhibition), mean ([3]; synthesized peptide 500 μg/mL): -136.81% |
| N=C(N)NCCC[C@H](N)C(=O)N1CCC[C@H]1C(=O)N1CCC[C@H]1C(=O)NCC(=O)N[C@@H](Cc1ccccc1)C(=O)N[C@@H](CO)C(=O)N1CCC[C@H]1C(=O)N[C@@H](Cc1ccccc1)C(=O)O [PrMb-Eb14] | >128.000 µg/mL | >128.000 µg/mL | >128.000 µg/mL | >128.000 µg/mL | >128.000 µg/mL | >128.000 µg/mL | >128.000 µg/mL | >128.000 µg/mL | >128.000 µg/mL | >128.000 µg/mL | >128.000 µg/mL | >128.000 µg/mL | >128.000 µg/mL | >128.000 µg/mL | >128.000 µg/mL | >128.000 µg/mL | >128.000 µg/mL | 1.0mg peptide soluble in 1.0ml H2O | – | – | – |
| CC[C@H](C)[C@H](NC(=O)CNC(=O)CNC(=O)[C@@H](NC(=O)[C@H](CS)NC(=O)[C@H](CCCCN)NC(=O)[C@H](CCCCN)NC(=O)CNC(=O)[C@@H](NC(=O)[C@@H]1CCCN1C(=O)[C@@H](N)CCC(N)=O)[C@@H](C)CC)[C@@H](C)O)C(=O)N[C@@H](CC(N)=O)C(=O)N[C@@H](CS)C(=O)N[C@@H](CCCCN)C(=O)N[C@@H](CCCCN)C(=O)NCC(=O)N1CCC[C@H]1C(=O)N1CCC[C@H]1C(=O)N[C@@H](CCCNC(=N)N)C(=O)N[C@@H](CC(C)C)C(=O)N[C@@H](CCCCN)C(=O)N1CCC[C@H]1C(=O)NCC(=O)O [TrPr-Pc6] (H-QPIGKKCTGGINCKKGPPRLKPG-OH; N-terminus and C-terminus assumed) | – | – | >128.000 µg/mL | – | – | >128.000 µg/mL | – | – | – | – | – | >128.000 µg/mL | – | – | >128.000 µg/mL | – | – | 1.0mg peptide soluble in 1.0ml H2O | – | – | Bacterial MIC (K. pneumoniae 4640; 4640, 20 h): >128.000 µg/mL; Bacterial MIC (P. aeruginosa PA01 (Si); Si): >128.000 µg/mL; Bacterial MIC (S. aureus ATCC 25923; ATCC 25923, 20 h): >128.000 µg/mL; Bacterial MIC (P. aeruginosa ATCC 27853; ATCC 27853, 20 h): >128.000 µg/mL; Bacterial MIC (A. baumannii ATCC 17978; ATCC 17978, 20 h): >128.000 µg/mL; Bacterial MIC (E. faecium ATCC 49224; ATCC 49224, 20 h): >128.000 µg/mL; Bacterial MIC (E. cloacae ATCC 35549; ATCC 35549, 20 h): >128.000 µg/mL; Bacterial MIC (E. faecium ATCC 19434; ATCC 19434, 20 h): >128.000 µg/mL; Bacterial MIC (E. cloacae ATCC 13047; ATCC 13047, 20 h): >128.000 µg/mL; Bacterial MIC (P. aeruginosa MRSN 5519; MRSN 5519, 20 h): >128.000 µg/mL; Bacterial MIC (A. baumannii ATCC 19606; ATCC 19606, 20 h): >128.000 µg/mL; Bacterial MIC (E. coli ATCC 43888; ATCC 43888, 20 h): >128.000 µg/mL; Bacterial MIC (K. pneumoniae ATCC 13883; ATCC 13883, 20 h): >128.000 µg/mL |
| NRKGPRPPGFSPFR [PrAd-Eb9] | >128.000 µg/mL | >128.000 µg/mL | >128.000 µg/mL | >128.000 µg/mL | >128.000 µg/mL | >128.000 µg/mL | >128.000 µg/mL | >128.000 µg/mL | >128.000 µg/mL | >128.000 µg/mL | >128.000 µg/mL | >128.000 µg/mL | >128.000 µg/mL | >128.000 µg/mL | >128.000 µg/mL | >128.000 µg/mL | >128.000 µg/mL | 1.0mg peptide soluble in 1.0ml H2O | -120.796% | -129.548% | Bd inhibition score (percent inhibition), mean ([3]; synthesized peptide 62.5 μg/mL): -134.776%; Bd inhibition score (percent inhibition), mean ([3]; synthesized peptide 125 μg/mL): -156.474%; Bd inhibition score (percent inhibition), mean ([3]; synthesized peptide 250 μg/mL): -160.396%; Bd inhibition score (percent inhibition), mean ([3]; synthesized peptide 500 μg/mL): -188.605% |
